Where two headings read alike, the source gives them in different places.
Tests used:
[1] = biological target: T1, native human MDM2/p53 complex (Homo sapiens, UniProt Q00987); assay: ELISA-based dissociation of native MDM2/p53 complex in U87MG cell lysates; type: biochemical
T1 construct: U87MG cell lysates, containing the native MDM2/p53 complex; endogenous in cells; host or cells: U87MG human glioblastoma cells
Experimental: After extensive washes, levels of the MDM2/p53 complex were quantified using an antibody specific for p53, and subsequently an HRP-conjugated antibody and a TMB substrate kit. (C), (D) U87MG cell lysates, containing the native MDM2/p53 complex, were pre-incubated with DMSO (control) or different concentrations of the indicated compounds. Then, lysates were captured on wells pre-coated with MDM2 antibody. After extensive washes, levels of the MDM2/p53 complex were quantified using an antibody specific for p53, and subsequently an HRP-conjugated antibody and a TMB substrate kit. Blank wells were obtained in the absence of p53 antibody. Data are expressed as absorbance at 450 nm minus blank values (A), (B), or as % of control set to 100% (C), (D), and represent the mean ± SEM of at least three independent experiments.
To test the ability of new compound to dissociate the native MDM2/p53 complex, a quantitative sandwich immune-enzymatic assay, on crude cell lysates obtained from U87 MG cells was developed. […] The TMB substrate kit (Thermo Fisher Scientific) allowed a colorimetric quantification of the MDM2/p53 complex. […] Absorbance's values at 450 nm were measured, background subtracted and sigmoid dose-response curves were generated using Graph Pad Prism 4 software, from which IC50 values of MDM2/p53 complex were derived.

U87MG cells [2] = assay: Annexin V and 7-AAD staining (apoptosis); type: cell-based, human
Experimental: Dual staining with Annexin V coniugated to fluorescein-isothiocyanate (FITC) and 7-amino-actinomysin (7-AAD) was performed using the commercially available kit (Muse Annexin V and Dead Cell Kit; Merck KGaA, Darmstadt, Germany). […] Both floating and adherent cells were collected, centrifuged at 300 × g for 5 minutes and suspended in cell culture medium. Then, a 100 μl aliquot of cell suspension (about 5 × 10^4 cell/ml) was added to 100 μl of fluorescent reagent and incubated for 10 minutes at room temperature. After incubation, the percentages of living, apoptotic and dead cells were acquired and analyzed by Muse™ Cell Analyzer in accordance to the manufacture's guidelines. In cells undergoing apoptosis, annexin V binds to phosphatidylserine, which translocates to the outer leaflet of the cytoplasmatic membrane. Double staining is used to distinguish between viable, early apoptotic, and necrotic or late apoptotic cells. Annexin V:FITC […] cells were identified as early apoptotic. Cells which were Annexin V-FITC positive and 7-AAD positive were identified as cells in late apoptosis or necrotic.

U87MG cells [3] = assay: Cell viability, Trypan blue exclusion assay; type: cell-based, human
Experimental: Each experiment was performed in duplicate. […] Each experiment was performed in duplicate.
The effects of compound treatment on U87MG cell viability were evaluated by Trypan blue exclusion assays. Briefly harvested cells were mixed with an equal volume of 0.4% trypan blue dye. For quantization of cell viability, blue and bright cells were counted, and viability was calculated as the percentage of live (bright) cells versus control set to 100%. U87MG cells were treated with different concentrations (10 nM–10 μM) of each compound and after 24 h of incubation viable cells were counted.

U87MG cells [4] = assay: Δψm dissipation in intact cells (JC-1, mitochondria isolated after cell treatment); conditions: for Δψm dissipation: 10 μM, 24 h of cell treatment; for Δψm dissipation vs control: intact cells, 5 μM, 24 h
TSPO = biological target: T2, TSPO (Rattus norvegicus, UniProt P16257); assay: Competitive [3H]PK11195 radioligand binding assay; conditions: membrane homogenates from kidney, 0.6 nM [3H]PK11195; read-out: Ki, displacement of specific [3H]PK11195 binding
T2 construct: membranes homogenates obtained from kidney (20 μg of proteins) were incubated with 0.6 nM; from tissue; host or cells: kidney (crude mitochondrial membranes)
Experimental: (§1) Figure 3 New synthesized compounds bind to TSPO and induce Δψm collapse. (A) [^3H]PK11195 radioligand binding: membranes homogenates obtained from kidney (20 μg of proteins) were incubated with 0.6 nM [^3H]PK11195 and different compounds concentration. Reaching equilibrium, samples were filtered and bound radioactivity was counted. […] (B) Evaluation of Δψm in isolated mitochondria: Mitochondria (5 μg of proteins) were treated with compound 1 (5 μM), or compound 7 (5 μM), or DMSO (control) for 15 min. […] Each experiment was performed in duplicate.
Binding studies were performed as previously described. Briefly, crude mitochondrial membranes, in 50 mM Tris-HCl pH 7.4 buffer, were incubated with 0.6 nM [^3H]PK 11195 in the presence of new synthesized compounds (0.1 nM–10 μM) in a final volume of 0.5 ml for 90 min at 4°C. Incubations were terminated by rapid filtration through GF/C glass fiber filters and washed three times with 4 ml of cold buffer. The radioactivity was measured by liquid scintillation counter. Non-specific binding was estimated in the presence of unlabeled 1 μM PK 11195. IC50 value was determined using Graph-Pad Prism computer program (Graph Pad Software, version 5.0; San Diego, CA).

[5] = tested on: mitochondria isolated from the human GBM cell line U87MG; assay: Δψm dissipation in isolated mitochondria (JC-1); type: biochemical; conditions: isolated treated mitochondria, 5 μM, 15 min
Experimental: as §1
Several evidences have shown that TSPO is a constituent of the MPTP, taking therefore part in dissipation of Δψm that occurs after MPTP opening, as well as in the release of proapoptotic inter-membrane proteins and in the induction of apoptosis. To assess whether compounds 1 and 7 could modulate MPT-pore opening through their selective binding to TSPO, Δψm was measured in mitochondria isolated from the human GBM cell line U87MG.

[6] = tested on: p53 protein levels in U87MG cells; assay: p53 protein levels by Western blot; type: cell-based, human; conditions: 8 h incubation
Experimental: Figure 6 New synthesized compounds induce p53 protein accumulation by dissociation of MDM2/p53 complex and stimulate transcription of p53 target genes in U87MG cells. […] Lysates were subjected to Western blot analysis using antibody to p53 (FL-393; Santa Cruz Biotechnology). […] The MDM2/p53 complex and the relative input of the proteins were detected by immunoblot. One representative Western blot is presented (left panel). […] (D) Relative mRNA quantification of p53 target genes: The relative mRNA quantification of p53 target genes (p21 and MDM2) was performed by real-time RT-PCR as describe in Methods. […] Each experiment was performed in duplicate.
The western blot analysis for the evaluation of p53 protein levels was performed as previously described. […] 30 μg of each sample was then resolved by SDS-PAGE (8.5%), transferred to PVDF membranes and probed overnight at 4°C with primary antibody anti-p53 (FL-393; Santa Cruz Biotechnology; 1:500). The primary antibody was detected using anti-rabbit IgG light chains conjugated to peroxidase (diluted 1:10.000). The peroxidase was detected using a chemioluminescent substrate (ECL, Perkin Elmer). Densitometric analysis of immunoreactive bands was performed using Image J Software.

[7] = tested on: p53 target genes (MDM2, p21, PUMA) in U87MG cells; assay: Relative mRNA quantification of p53 target genes (real-time RT-PCR); type: cell-based, human; conditions: for mRNA levels of p53 target genes (MDM2 and p21): 5 μM
Experimental: The assessment of p53 target gene mRNA levels was performed by real-time reverse transcription polymerase chain reaction (real-time RT-PCR)[16]. In brief, total RNA was extracted from control cells as well as from cells treated with compounds (5 μM) for different hours, using Rneasy® Mini Kit (Qiagen, Hilden, Germany) according to manufacturer's instructions. Purity of the RNA samples was determined by measuring the absorbance at 260:280 nm. cDNA synthesis was performed with 500 ng of RNA using i-Script cDNA synthesis kit (BioRad, Hercules, USA) following manufacturer's instructions. […] RT-PCR reactions consisted of 25 μL Fluocycle® II SYBR® (Euroclone, Milano, Italy), 1.5 μL of both 10 μM forward and reverse primers, 3 μL cDNA, and 19 μL of H2O. All reactions were performed for 40 cycles using 55°C as annealing temperature. The p53 target gene mRNA levels for each sample were normalized against β-actin mRNA levels, and relative expression was calculated by using Ct value. PCR specificity was verified by both the melting curve analysis and gel electrophoresis.

U87MG cells [8] = assay: Senescence marker SA-β-Gal; type: cell-based, human; conditions: 5 μM, 24 h
Description: The senescence marker SA-β-Gal was detected as previously described[16] and cells were then washed in PBS (1×) and photographed at 100× magnification. Images of random light microscopic fields were captured (5 fields per well), and both blue and total cells were counted using ImageJ (ImageJ Software, version 1.41; USA).

[9] = Precipitation in NMR sample; type: physicochemical; conditions: added from DMSO stock, 20 mM TrisHCl, 150 mM KCl, pH 7.4
Experimental: NMR spectra were acquired at 25°C on a Varian Unity INOVA 700 MHz spectrometer equipped with a cryoprobe. NMR samples contained 0.1 mM of proteins in 20 mM TrisHCl, 150 mM KCl, pH 7.4, 5 mM β-mercaptoethanol, 0.02% NaN3. Water suppression was carried out by gradient echo[39]. NMR data were processed using the Bruker program BioSpin 3.0. For NMR ligand binding experiments, 300 μL of the protein sample containing 10% D2O, at a concentration of about 0.1 mM, and a 10 mM stock solution of compounds 7 and 1 in DMSO-d6 were used. The formal final molar ratio protein:inhibitor was 1:2.

[10] = biological target: T3, recombinant human MDM2/p53 complex (Homo sapiens, UniProt Q00987); assay: NMR dissociation (AIDA) of recombinant MDM2/p53 complex; type: binding; conditions: 0.2 mM formal final concentration, complex 0.1 mM
T3 construct: N-terminal region of MDM2 (residues 1–118); His-tag; made in house; host or cells: Escherichia coli BL21(DE3) RIL
T3 sequence (Q00987 1-118, one chain of several): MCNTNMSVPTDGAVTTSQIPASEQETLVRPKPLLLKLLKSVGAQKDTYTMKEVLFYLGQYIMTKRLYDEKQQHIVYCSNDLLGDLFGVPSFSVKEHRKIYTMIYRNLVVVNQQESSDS
Description: The method, named AIDA (for Antagonist Induced Dissociation Assay[26][27]), can work with complex made by a large protein fragment (larger than 30 kDa) and a small reporter protein (less than 20 kDa). AIDA makes use of two-dimensional^15N-HSQC spectra, however, in the presence of flexible protein residues, 1D proton NMR spectra may be sufficient for monitoring the states of the complex upon addition of ligands. Since the N-terminal domain of p53 is highly flexible, MDM2/p53 complex is suitable for 1D proton NMR application[26][28][29]. Particularly, the signals from ^NH^ε side chains of W23 and W53 are sharp in the free p53 1D proton spectrum. After the complex formation, W23 signal disappears, since W23 comprises the primary binding site for MDM2. In fact, residues 17–26 of p53 participate in well-defined structures of large MDM2/p53 complexes. In contrast, W53 is still not structured when p53 binds MDM2[26].
NMR spectra were acquired at 25°C on a Varian Unity INOVA 700 MHz spectrometer equipped with a cryoprobe. […] Water suppression was carried out by gradient echo[39]. NMR data were processed using the Bruker program BioSpin 3.0.

T1 sequence (Q00987 whole entry, one chain of several): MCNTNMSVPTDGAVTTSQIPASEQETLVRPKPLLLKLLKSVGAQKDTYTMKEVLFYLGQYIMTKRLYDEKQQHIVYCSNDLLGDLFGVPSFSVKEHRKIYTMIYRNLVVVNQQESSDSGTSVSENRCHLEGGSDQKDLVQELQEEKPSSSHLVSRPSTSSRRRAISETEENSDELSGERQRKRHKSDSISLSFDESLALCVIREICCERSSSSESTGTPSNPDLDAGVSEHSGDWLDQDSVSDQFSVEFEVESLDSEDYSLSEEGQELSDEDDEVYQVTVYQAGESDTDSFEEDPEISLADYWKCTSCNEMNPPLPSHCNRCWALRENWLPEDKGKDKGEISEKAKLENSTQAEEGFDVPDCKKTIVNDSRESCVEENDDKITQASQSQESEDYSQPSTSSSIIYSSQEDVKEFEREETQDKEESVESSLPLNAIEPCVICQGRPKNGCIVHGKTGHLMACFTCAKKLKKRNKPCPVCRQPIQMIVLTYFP

| Structure (SMILES) | IC50 [1] [nM] | Δψm dissipation (U87MG cells [4]) | Ki (TSPO) [nM] | Δψm dissipation vs control [5] [%] | concentration at which p53 accumulation became significant [6] [µM] | mRNA levels of p53 target genes (MDM2 and p21) [7] | Δψm dissipation vs control (U87MG cells [4]) [%] | other results |
| --- | --- | --- | --- | --- | --- | --- | --- | --- |
| O=C1[C@@H]2CS[C@@]3(C(=O)Nc4ccccc43)N2C(=O)N1Cc1ccc(Cl)cc1 [ISA27, reference compound] | 122 ± 14.5 | – | – | – | – | – | – | – |
| COc1ccc(C2=N[C@@H](c3ccc(Cl)cc3)[C@@H](c3ccc(Cl)cc3)N2C(=O)N2CCNC(=O)C2)c(OC(C)C)c1 [Nutlin-3, reference compound] | – | only a marginal effect | – | – | – | – | – | induction of specific apoptotic parameters (Annexin V, PUMA mRNA) (U87MG cells [2]; 10 μM, 24 h): did not show any induction; effect on U87MG cell viability (U87MG cells [3]; 24 h): dose-dependent reduction |
| CCC(C)N(C)C(=O)c1cc2ccccc2c(-c2ccccc2Cl)n1 (stereo not shown) [PK11195] | – | significant Δψm dissipation | – | – | – | – | – | inhibition of cell viability vs control (U87MG cells [3]; 100 μM, 24 h, maximal effect): 52.0 ± 2.3%; concentration from which inhibition of cell viability is significant (U87MG cells [3]; 24 h): 10 µM |
| CCOC(=O)[C@@H](Cc1ccccc1)NC(=O)[C@H](CC(C)C)NC(=O)C(=O)c1c(-c2ccccc2)[nH]c2ccccc12 [compound 1, (2-phenylindol-3-yl)glyoxyl-L-leucine-L-phenylalanine ethylester] | – | – | 438 ± 35 | 20.0 ± 1.8 | 5 | increase significantly | 47.0 ± 3.4 | increase of PUMA mRNA level ([7]; 16–24 h): approximately 4 fold; activity of the senescence marker β-galactosidase (U87MG cells [8]): no activity; phosphatidylserine externalization (early and late apoptosis) (U87MG cells [2]; 5 μM): significant phosphatidylserine externalization; IC50 (U87MG cells [3]; Homo sapiens, U-87 MG, 24 h, read-out: IC50, U87MG cell survival): 2500 ± 400 nM; actual concentration in MDM2/p53 NMR sample (sample precipitation) [9]: lower than 0.2 mM |
| CC(C)C[C@H](NC(=O)C(=O)c1c(-c2ccccc2)[nH]c2ccccc12)C(=O)N[C@H](Cc1ccccc1)C(=O)O [compound 7, (2-phenylindol-3-yl)glyoxyl-L-leucine-L-phenylalanine] | 202 ± 21.2 | – | 759 ± 56 | 43 ± 3.1 | 5 | increase significantly | 60.1 ± 3.2 | p53 release from MDM2/p53 complex (W23 peak appears) [10]: complete p53 release; IC50 (U87MG cells [3]; Homo sapiens, U-87 MG, 24 h; read-out: IC50, U87MG cell survival): 2900 ± 500 nM |

From paper PMC3996484, “Apoptosis Therapy in Cancer: The First Single-molecule Co-activating p53 and the Translocator Protein in Glioblastoma” (Scientific Reports, 2014)
